Experimental data as given in patent publication US12030903B2, “Antiviral compounds” (Gilead Sciences, Inc., priority 2020, dated 2024).

Experiments:
[1] = test system: Dengue serotype 2 New Guinea C (NGC) strain; assay: DENV-2 Huh-7 EC50 (qPCR of viral RNA in infected Huh7 cells); format: cell-based; settings: Dengue virus, DENV2, Huh-7, Huh7 cells infected with Dengue serotype 2 NGC, MOI=0.1, 48 hours
Procedure: Huh7 (Human hepatocarcinoma 7) cells were maintained in 10% FCS-containing DMEM complete media. On the day of the assay, cells were trypsinized (0.1% Trypsin-EDTA), washed and infected for 2 hours in serum-free DMEM with Dengue serotype 2 New Guinea C (NGC) strain at MOI=0.1 with gentle agitation at 37° C. After 2 hours, cells were washed with serum-free media and suspended in 10% FCS-containing DMEM (Gibco, supplemented with sodium pyruvate, NEAA, Penicillin-Streptomycin). 10^5 cells were plated in triplicate in 96-well plates with compounds dispensed at graded doses (Hewlett-Packard D300 Digital Dispenser). All wells were normalized to 0.25% DMSO. At 48 hours, cells were washed with 1× PBS and all supernatants removed. Total RNA was extracted using RNEasy 96 plates (Qiagen) and used to generate first-strand cDNA using XLT cDNA 5× Supermix (QuantaBio). cDNA was used as a template in a Taqman qPCR duplex reaction specific to DENV2 viral and GAPDH gene expression. EC50 values were determined using Prism Graphpad software, with normalization to a positive control and no compound negative control wells.

[2] = HEp-2 CC50 (cytotoxicity in uninfected HEp-2 cells); format: cell-based; settings: human, CellTiter Glo
Procedure: Instead, an uninfected cell mixture at the same density is added at 20 uL/well to plates containing prediluted compounds, also at 100 nL/sample. Assay plates are then incubated for 4 days followed by a cell viability test using the same CellTiter Glo reagent addition and measurement of luminescent readouts. Untreated cell and cells treated at 2 μM puromycin (Sigma, St. Louis, MO) serve as 100% and 0% cell viability control, respectively.

[3] = test system: RSV strain A2; assay: RSV HEp-2 EC50 (infectious cytopathic cell protection assay); format: cell-based, RSV strain A2; HEp-2 cells; settings: human respiratory syncytial virus, HEp-2, 96 h, read-out: RSV Hep-2 EC50
Procedure: Example 86. RSV HEp-2 EC50
Antiviral activity against RSV is determined using an infectious cytopathic cell protection assay in HEp-2 cells. In this assay, compounds inhibiting viral infection and/or replication produce a cytoprotective effect against the virus-induced cell killing that can be quantified using a cell viability reagent. The techniques used here are novel adaptations of methods described in published literature (Chapman et al., Antimicrob Agents Chemother. 2007, 51(9):3346-53.)
HEp-2 cells are obtained from ATCC (Manassas, VI) and maintained in MEM media supplemented with 10% fetal bovine serum and penicillin/streptomycin. Cells are passaged twice a week and kept at subconfluent stage. Commercial stock of RSV strain A2 (Advanced Biotechnologies, Columbia, MD) is titered before compound testing to determine the appropriate dilution of the virus stock that generates desirable cytopathic effect in HEp-2 cells.
For antiviral tests, HEp-2 cells are grown in large cell culture flasks to near confluency but not fully so. The compounds to be tested are prediluted in DMSO in 384-well compound dilution plates, either in an 8 or 40 sample per plate standardized dose response format. 3-fold serial dilution increments of each test compound are prepared in the plates and test samples are transferred via acoustic transfer apparatus (Echo, Labcyte) at 100 nL per well into cell culture assay 384-well plates. Each compound dilution is transferred in single or quadruplicate samples into dry assay plates, which are stored until assay is ready to go. The positive and negative controls are laid out in opposite on ends of the plate in vertical blocks (1 column).
Subsequently, an infectious mixture is prepared using an appropriate dilution of virus stock previously determined by titration with cells at a density of 50,000/mL and 20 uL/well is added to test plates w/compounds via automation (uFlow, Biotek). Each plate includes negative and positive controls (16 replicates each) to create 0% and 100% virus inhibition standards, respectively. Following the infection with RSV, testing plates are incubated for 4 days in a 37° C. cell culture incubator. After the incubation, a cell viability reagent, Cell TiterGlo (Promega, Madison, WI) is added to the assay plates, which are incubated briefly, and a luminescent readout is measured (Envision, Perkin Elmer) in all the assay plates. The RSV-induced cytopathic effect, percentage inhibition, is determined from the levels of remaining cell viability. […] Various potent anti-RSV tool compounds are used as positive controls for antiviral activity.

[4] = Huh-7 CC50 (CellTiter Glo viability); format: cell-based, Human; settings: human, Huh7 hepatocarcinoma cells
Procedure: Human hepatocarcinoma 7 (Huh7) cells were maintained in 10% FCS-containing complete DMEM. On day of assay, cells were trypsinized with 0.1% Trypsin-EDTA, washed and cultured in triplicate at 1-2×10^4 cells/well in 96-well plates with compounds dispensed at graded doses (Hewlett-Packard D300 Digital Dispenser). All wells were normalized to 0.25% DMSO. After 48 hours, CellTiter Glo (Promega) was added and incubated for 10 minutes at room temp before reading on a luminometer. % viability curves were calculated against no compound and no cell control wells. CC50 values were determined using Prism Graphpad software.

[5] = test system: Dengue 2, New Guinea strain (NGC); assay: DENV-2 moDC EC50 (qPCR of viral RNA in infected moDCs); format: cell-based, New Guinea strain (NGC); human moDCs; settings: Dengue virus, human moDCs infected with Dengue 2 NGC, MOI=0.1, 48 hours
Procedure: Example 82. DENV-2 moDC EC50
Human monocyte-derived dendritic cells (moDCs) were derived from CD14+ monocytes (AllCells) cultured in Human Mo-DC Differentiation medium containing GM-CSF and IL-4 (Miltenyi Biotec). On day 7, moDCs were harvested by mechanical disruption, washed and suspended in serum-free RPMI. moDCs were infected with Vero-derived Dengue 2, New Guinea strain (NGC) at a MOI=0.1 for two hours in serum-free RPMI with gentle agitation at 37° C. Cells were washed and resuspended in 10% serum-containing RPMI (Gibco, supplemented with sodium pyruvate, NEAA, Penicillin-Streptomycin). […] were plated in triplicate in 96-well plates with compounds dispensed at graded doses (Hewlett-Packard D300 Digital Dispenser). All wells were normalized to 0.25% DMSO. At 48 hours, cells were washed with 1×PBS and all supernatants removed. Total RNA was extracted using RNEasy 96 plates (Qiagen) and used to generate first-strand cDNA using XLT cDNA 5× Supermix (QuantaBio). cDNA was used as a template in a Taqman qPCR duplex reaction specific to DENV2 viral and GAPDH gene expression. EC50 values were determined using Prism Graphpad software, with normalization to a positive control and no compound negative control wells.

[6] = moDC CC50 (CellTiter Glo viability); format: cell-based, Human; settings: human, uninfected moDCs
Procedure: Human monocyte-derived dendritic cells (moDCs) were derived from CD14+ monocytes (AllCells) cultured in Human Mo-DC Differentiation medium containing GM-CSF and IL-4 (Miltenyi Biotec). On day 7, moDCs were harvested by mechanical disruption, washed and cultured in triplicate at […] cells/well in 96-well plates with compounds dispensed at graded doses (Hewlett-Packard D300 Digital Dispenser). All wells were normalized to 0.25% DMSO. After 48 hours, CellTiter Glo (Promega) was added and incubated for 10 minutes at room temp before reading on a luminometer. % viability curves were calculated against no compound and no cell control wells. CC50 values were determined using Prism Graphpad software.

Row | SMILES | EC50 [1] | CC50 at 4 days [2] | EC50 [3] | CC50 at 48 h [4] | EC50 [5] | CC50 at 48 h [6]
1 | CC(C)OC(=O)[C@H](C)N[P@](=O)(OC[C@@]1(CF)O[C@@H](c2ccc3c(N)ncnn23)[C@H](O)[C@@H]1O)Oc1ccccc1 (single isomer, unassigned) [Example 12] | 453 nM | > 100000 nM | 1370 nM | > 25000 nM | 753 nM | > 25000 nM
2 | CCCCCCOC(=O)[C@H](C)N[P@@](=O)(OC[C@@]1(CF)O[C@@H](c2ccc3c(N)ncnn23)[C@H](O)[C@@H]1O)Oc1ccccc1 (single isomer, unassigned) [Example 18] | 384 nM | > 100000 nM | 1300 nM | > 25000 nM | 264 nM | > 10500 nM
3 | CCCCCCOC(=O)[C@H](C)N[P@](=O)(OC[C@@]1(CF)O[C@@H](c2ccc3c(N)ncnn23)[C@H](O)[C@@H]1O)Oc1ccccc1 (single isomer, unassigned) [Example 19] | 416 nM | > 97100 nM | 722 nM | > 25000 nM | 212 nM | 10900 nM
4 | CCC(CC)COC(=O)[C@H](C)N[P@](=O)(OC[C@@]1(CF)O[C@@H](c2ccc3c(=N)n(COP(=O)(O)O)cnn23)[C@H](O)[C@@H]1O)Oc1ccccc1 (single isomer, unassigned) [Example 34] | 165 nM | – | – | 6470 nM | 334 nM | 7660 nM
5 | CCCCOC(=O)[C@H](C)N[P@](=O)(OC[C@@]1(CF)O[C@@H](c2ccc3c(N)ncnn23)[C@H](O)[C@@H]1O)Oc1ccccc1 (single isomer, unassigned) [Example 46] | 386 nM | 37100 nM | 236 nM | 10200 nM | 158 nM | 3350 nM
6 | C[C@H](NP(=O)(OC[C@@]1(CF)O[C@@H](c2ccc3c(N)ncnn23)[C@H](O)[C@@H]1O)Oc1ccccc1)C(=O)OCC(C)(C)C(F)(F)F (stereo partly drawn) [Example 53, 3,3,3-trifluoro-2,2-dimethylpropyl ((((2R,3S,4R,5S)-5-(4-aminopyrrolo[2,1-f][1,2,4]triazin-7-yl)-2-(fluoromethyl)-3,4-dihydroxytetrahydrofuran-2-yl)methoxy)(phenoxy)phosphoryl)-L-alaninate] | 419 nM | > 100000 nM | 565 nM | 19700 nM | – | –
7 | CCC(CC)COC(=O)[C@H](C)N[P@](=O)(OC[C@@]1(CF)O[C@@H](c2ccc3c(N)ncnn23)[C@H](OC(C)=O)[C@@H]1OC(C)=O)Oc1ccccc1 [Example 60, (2R,3S,4S,5S)-5-(4-aminopyrrolo[2,1-f][1,2,4]triazin-7-yl)-2-((((S)-(((S)-1-(2-ethylbutoxy)-1-oxopropan-2-yl)amino)(Phenoxy)phosphoryl)oxy)methyl)-2-(fluoromethyl)tetrahydrofuran-3,4-diyl diacetate] | 1210 nM | 36200 nM | 1100 nM | > 24800 nM | – | –
8 | CCOC(=O)[C@@H](NP(=O)(OC[C@@]1(CF)O[C@@H](c2ccc3c(N)ncnn23)[C@H](O)[C@@H]1O)Oc1ccccc1)C(C)C (stereo partly drawn) [Example 69, ethyl ((((2R,3S,4R,5S)-5-(4-aminopyrrolo[2,1-f][1,2,4]triazin-7-yl)-2-(fluoromethyl)-3,4-dihydroxytetrahydrofuran-2-yl)methoxy)(phenoxy)phosphoryl)-L-valinate] | > 25000 nM | > 50000 nM | > 50000 nM | > 25000 nM | – | –
9 | C[C@H](N[P@](=O)(OC[C@@]1(CF)O[C@@H](c2ccc3c(N)ncnn23)[C@H](O)[C@@H]1O)Oc1ccccc1)C(=O)OC1COC1 [Example 72, oxetan-3-yl ((S)-(((2R,3S,4R,5S)-5-(4-aminopyrrolo[2,1-f][1,2,4]triazin-7-yl)-2-(fluoromethyl)-3,4-dihydroxytetrahydrofuran-2-yl)methoxy)(phenoxy)phosphoryl)-L-alaninate] | 12400 nM | > 50000 nM | 15600 nM | > 25000 nM | – | –
